These are literature values, as cited in patent publication US20130281394A1, “Chemosensory Receptor Ligand-Based Therapies” (ELCELYX THERAPEUTICS, INC., priority 2010, published 2013).

Data set [1] concerns bitter receptor.
The target in data set [2] is T1, sweet receptor (Homo sapiens, UniProt Q7RTX0+Q8TE23).
T1 sequence (Q8TE23 20-839): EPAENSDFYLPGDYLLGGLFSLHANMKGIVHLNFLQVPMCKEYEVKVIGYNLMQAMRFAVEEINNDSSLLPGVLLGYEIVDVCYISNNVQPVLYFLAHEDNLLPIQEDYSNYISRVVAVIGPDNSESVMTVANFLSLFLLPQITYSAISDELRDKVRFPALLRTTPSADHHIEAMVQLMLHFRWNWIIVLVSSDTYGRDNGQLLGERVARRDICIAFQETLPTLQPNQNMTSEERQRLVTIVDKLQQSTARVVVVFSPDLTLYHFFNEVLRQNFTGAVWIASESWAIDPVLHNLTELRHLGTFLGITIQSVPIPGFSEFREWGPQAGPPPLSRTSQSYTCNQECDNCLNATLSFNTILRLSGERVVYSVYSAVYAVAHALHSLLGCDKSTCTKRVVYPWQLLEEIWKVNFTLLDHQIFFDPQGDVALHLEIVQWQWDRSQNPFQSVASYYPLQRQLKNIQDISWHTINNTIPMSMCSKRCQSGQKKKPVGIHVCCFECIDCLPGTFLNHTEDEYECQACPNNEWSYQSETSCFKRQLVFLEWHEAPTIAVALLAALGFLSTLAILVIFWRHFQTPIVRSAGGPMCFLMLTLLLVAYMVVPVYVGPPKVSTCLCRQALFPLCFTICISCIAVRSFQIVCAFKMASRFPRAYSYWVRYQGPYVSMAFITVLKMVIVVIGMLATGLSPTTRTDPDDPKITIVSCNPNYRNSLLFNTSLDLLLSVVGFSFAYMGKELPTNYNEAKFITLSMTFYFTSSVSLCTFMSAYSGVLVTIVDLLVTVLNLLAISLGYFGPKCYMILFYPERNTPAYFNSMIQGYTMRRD
T1 sequence (Q7RTX0 21-852): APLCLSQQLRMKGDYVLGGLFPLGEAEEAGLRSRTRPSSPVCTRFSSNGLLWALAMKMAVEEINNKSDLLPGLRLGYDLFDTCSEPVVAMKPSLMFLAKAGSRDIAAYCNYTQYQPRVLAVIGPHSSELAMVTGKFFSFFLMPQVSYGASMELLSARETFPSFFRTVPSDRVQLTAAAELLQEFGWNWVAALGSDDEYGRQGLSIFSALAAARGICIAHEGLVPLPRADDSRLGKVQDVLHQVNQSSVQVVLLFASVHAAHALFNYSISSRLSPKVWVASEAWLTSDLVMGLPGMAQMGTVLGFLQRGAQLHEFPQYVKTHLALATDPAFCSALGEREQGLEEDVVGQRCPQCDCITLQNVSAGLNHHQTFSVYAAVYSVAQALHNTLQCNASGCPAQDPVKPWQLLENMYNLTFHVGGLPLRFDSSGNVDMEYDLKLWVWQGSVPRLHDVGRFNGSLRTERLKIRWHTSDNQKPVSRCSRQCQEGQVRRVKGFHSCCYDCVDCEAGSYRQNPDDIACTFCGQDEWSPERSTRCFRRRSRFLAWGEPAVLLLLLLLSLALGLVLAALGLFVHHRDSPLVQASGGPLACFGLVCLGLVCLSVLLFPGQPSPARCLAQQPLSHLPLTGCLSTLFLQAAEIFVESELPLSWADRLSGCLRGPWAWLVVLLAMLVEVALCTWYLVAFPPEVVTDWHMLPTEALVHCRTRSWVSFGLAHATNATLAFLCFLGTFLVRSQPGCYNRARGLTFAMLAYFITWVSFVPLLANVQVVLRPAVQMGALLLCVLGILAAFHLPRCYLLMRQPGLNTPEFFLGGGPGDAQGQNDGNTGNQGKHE
The settings on record: relative sweetness on a weight comparison basis to sucrose (= 1.0); ranges: varied with the concentration of sucrose.

Marks after values point to notes of the source that are not given here.

As for `C[C@@H]1O[C@@H](O[C@H]2[C@H](Oc3cc(O)c4c(c3)O[C@H](c3ccc(O)cc3)CC4=O)O[C@H](CO)[C@@H](O)[C@@H]2O)[C@H](O)[C@H](O)[C@H]1O` [Naringin], in data set [1], the Taste quality entry was “Bitter”. `CC(=O)O[C@H]1CC(=O)OC(C)(C)[C@@H]2CC(=O)[C@]3(C)[C@H](CC[C@@]4(C)[C@H](c5ccoc5)OC(=O)[C@H]5O[C@]543)[C@@]12C` [Nomilin]: in data set [1], the Taste quality result is on record as “Bitter”.

`COc1ccc(-c2cc(=O)c3c(OC)c(OC)c(OC)c(OC)c3o2)cc1` [Tangeretin]: in data set [1], the Taste quality entry is on record as “Bitter”. Turning to `O=c1c(-c2ccc(O)cc2)coc2cc(O)cc(O)c12` [Genistein], the Taste quality entry in data set [1] was “Bitter or astringent”. As to `CC1(C)O[C@H]2CC(=O)OC[C@]23[C@H]2CC[C@@]4(C)[C@H](c5ccoc5)OC(=O)[C@H]5O[C@]54[C@]2(C)C(=O)C[C@@H]13` [Limonin], the Taste quality result in data set [1] is listed as “Bitter”. Take `O=C(O[C@@H]1Cc2c(O)cc(O)cc2O[C@@H]1c1ccc(O)c(O)c1)c1cc(O)c(O)c(O)c1` [Epicatechin gallate]: the Taste quality entry in data set [1] was “Bitter and astringent”. With `O=S(=O)(O)ON=C(Cc1c[nH]c2ccccc12)S[C@@H]1O[C@H](CO)[C@@H](O)[C@H](O)[C@H]1O` [Glucobrassicin], the Taste quality entry in data set [1] is on record as “Bitter”. `O=c1c(-c2ccc(O)cc2)coc2cc(O)ccc12` [daidzein]: the Taste quality entry in data set [1] is listed as “Bitter or astringent”. For `O=c1c(O)c(-c2ccc(O)c(O)c2)oc2cc(O)cc(O)c12` [Quercetin], the Taste quality result in data set [1] was “Bitter”. With `C=CCN=C=S` [Allyl-isothiocyanate], the Taste quality entry in data set [1] is listed as “Acrid mustard oils;”. Take `C=C1C[C@@]23CC[C@H]4[C@@](C)(CCC[C@@]4(C)C(=O)O[C@@H]4O[C@H](CO)[C@@H](O)[C@H](O)[C@H]4O)[C@@H]2CC[C@]1(O[C@@H]1O[C@H](CO)[C@@H](O)[C@H](O)[C@H]1O[C@@H]1O[C@H](CO)[C@@H](O)[C@H](O)[C@H]1O)C3` [Stevioside]: the Sweetness/potency in data set [2] is listed as 210. With Carnosifloside V, in data set [2], the Sweetness/potency is 51.

In the case of `C/C(=C\CC/C(C)=C/CO[C@@H]1O[C@H](CO)[C@@H](O)[C@H](O[C@@H]2O[C@@H](C)[C@H](O)[C@@H](O)[C@H]2O)[C@H]1O[C@@H]1O[C@@H](C)[C@H](O)[C@@H](O)[C@H]1O)CC/C=C(\C)CO[C@@H]1O[C@H](CO)[C@@H](O)[C@H](O[C@@H]2O[C@@H](C)[C@H](O)[C@@H](O)[C@H]2O)[C@H]1O[C@@H]1O[C@@H](C)[C@H](O)[C@@H](O)[C@H]1O` [Mukurozioside IIb], in data set [2], the Sweetness/potency entry was “ca. 1”. As for `C=C1C[C@@]23CC[C@H]4[C@@](C)(CCC[C@@]4(C)C(=O)O)[C@@H]2CC[C@]1(O[C@@H]1O[C@H](CO)[C@@H](O)[C@H](O)[C@H]1O[C@@H]1O[C@H](CO)[C@@H](O)[C@H](O)[C@H]1O)C3` [Steviolbioside], the Sweetness/potency in data set [2] is listed as 90. As to Thaumatin, the Sweetness/potency in data set [2] is given as 1,600. For `CC1=CC[C@@H]([C@@H](C)[C@H]2CC[C@@]3(C)[C@@H]4CC[C@H]5[C@](C)(C(=O)O)[C@@H](O[C@@H]6O[C@H](CO)[C@@H](O)[C@H](O)[C@H]6O)CC[C@@]56C[C@@]46CC[C@]23C)OC1=O` [Abrusoside A], the Sweetness/potency in data set [2] is reported as 30. For the compound `COc1c(O)cc2c(c1O)C(=O)[C@H](OC(C)=O)[C@@H](c1ccc(O)cc1)O2` [(2R,3R)-2,3-Dihydro-5,7,4′-trihydroxy-6-methoxy-3-O-acetylflavonol], in data set [2], the Sweetness/potency was 20. Regarding `C=C1C[C@@]23CC[C@H]4[C@@](C)(CCC[C@@]4(C)C(=O)O[C@@H]4O[C@H](CO)[C@@H](O)[C@H](O)[C@H]4O)[C@@H]2CC[C@]1(O[C@@H]1O[C@H](CO)[C@@H](O)[C@H](O)[C@H]1O[C@@H]1O[C@@H](C)[C@H](O)[C@@H](O)[C@H]1O)C3` [Dulcoside A], the Sweetness/potency in data set [2] is on record as 30. For the compound `C=C(C)C1CCC2(C)C(CC(OC3OCC(O)C(O)C3O)C3C(C(C)(O)C/C=C/C(C)(C)O)CCC32C)C1(C)CCC(=O)O` (stereo not shown) [Pterocaryoside B], the Sweetness/potency in data set [2] is 100. As for `C[C@H](CC[C@@H](O[C@@H]1O[C@H](CO[C@@H]2O[C@H](CO)[C@@H](O)[C@H](O)[C@H]2O)[C@@H](O)[C@H](O)[C@H]1O[C@@H]1O[C@H](CO)[C@@H](O)[C@H](O)[C@H]1O)C(C)(C)O)[C@H]1CC[C@@]2(C)[C@@H]3CC=C4[C@@H](CC[C@H](O[C@@H]5O[C@H](CO)[C@@H](O)[C@H](O)[C@H]5O)C4(C)C)[C@]3(C)[C@H](O)C[C@]12C` [Siamenoside I], the Sweetness/potency in data set [2] is 563. As for Monellin, the Sweetness/potency in data set [2] was 3,000. For `COc1c(O)cc2c(c1O)C(=O)[C@H](OC(C)=O)[C@@H](c1ccc(O)c(O)c1)O2` [(2R,3R)-2,3-Dihydro-5,7,3′,4′-tetrahydroxy-6-methoxy-3-O-acetylflavonol], the Sweetness/potency in data set [2] is on record as 25. With `CC1(C(=O)O)C=C2C3CCC4C5(C=O)CCC(OC6OC(C(=O)O)C(O)C(O)C6OC6OCC(O)C(O)C6O)C(C)(C)C5CCC4(C)C3(C)CCC2(C)CC1` (stereo not shown) [Periandrin V], in data set [2], the Sweetness/potency is given as 220. `C/C(=C\CC[C@@H](C)[C@H]1CC[C@@]2(C)[C@@H]3CC=C4[C@@H](CC[C@H](O[C@@H]5O[C@H](CO)[C@@H](O)[C@H](O)[C@H]5O)C4(C)C)[C@]3(C)[C@H](O)C[C@]12C)CO[C@@H]1O[C@H](CO[C@@H]2O[C@H](CO)[C@@H](O)[C@H](O)[C@H]2O)[C@@H](O)[C@H](O)[C@H]1O` [Carnosifloside VI]: in data set [2], the Sweetness/potency is 77. Consider `C=C1C[C@@]23CC[C@H]4[C@@](C)(CCC[C@@]4(C)C(=O)O[C@@H]4O[C@H](CO)[C@@H](O)[C@H](O)[C@H]4O)[C@@H]2CC[C@]1(O[C@@H]1O[C@H](CO)[C@@H](O)[C@H](O)[C@H]1O)C3` [Rubusoside], for which the Sweetness/potency in data set [2] is 115. For Periandrin IV, in data set [2], the Sweetness/potency was 85. Turning to `CC(C)=CCC[C@](C)(O)[C@@H]1CCC(C)=CC1=O` [(+)-Hernandulcin], the Sweetness/potency in data set [2] is 1,500. For `CC1(C)C[C@H]2C3=CC[C@@H]4[C@@]5(C)CC[C@H](O[C@@H]6O[C@H](CO[C@@H]7OC[C@H](O)[C@H](O)[C@H]7O[C@@H]7OC[C@@H](O)[C@H](O)[C@H]7O)[C@@H](O)[C@H](O)[C@H]6O)C(C)(C)[C@@H]5CC[C@@]4(C)[C@]3(C)C[C@@H](O)[C@@]23C[C@@H]1OC3=O` [Albiziasaponin A], the Sweetness/potency in data set [2] is 5. For `CC1(C)[C@@H](O[C@H]2O[C@H](C(=O)O)[C@@H](O)[C@H](O)[C@H]2O[C@@H]2O[C@H](C(=O)O)[C@@H](O)[C@H](O)[C@H]2O)CC[C@]2(C)[C@H]3C(=O)C=C4[C@@H]5C[C@@](C)(C(=O)O)CC[C@]5(C)CC[C@@]4(C)[C@]3(C)CC[C@@H]12` [Glycyrrhizin], in data set [2], the Sweetness/potency is on record as 93-170^d. Regarding `COc1ccc([C@H]2Cc3cccc(O)c3C(=O)O2)cc1O` [Phyllodulcin], the Sweetness/potency in data set [2] is 400. Regarding `CC1(C(=O)O)C=C2C3CCC4C5(CO)CCC(OC6OC(C(=O)O)C(O)C(O)C6OC6OC(C(=O)O)C(O)C(O)C6O)C(C)(C)C5CCC4(C)C3(C)CCC2(C)CC1` (stereo not shown) [Periandrin III], the Sweetness/potency in data set [2] is recorded as 92. Take “4β,11α-Dimethyl-1,2,3,4,5,10-hexahydro-fluorene-4α,6α-dicarboxylic acid”: the Sweetness/potency in data set [2] is reported as 1,300-1,800^d. Pterocaryoside A: the Sweetness/potency in data set [2] was 50. On to `C[C@@H]1O[C@@H](O[C@H]2O[C@@H]([C@@H](C)C3CC[C@@H]4[C@H]5CC(=O)[C@@H]6C[C@H](O[C@@H]7O[C@H](CO)[C@@H](O)[C@H](O)[C@H]7O[C@@H]7O[C@@H](C)[C@H](O)[C@@H](O)[C@H]7O)CC[C@]6(C)[C@@H]5CC[C@]34C)CC[C@@H]2C)[C@H](O)[C@H](O)[C@H]1O` (stereo partly shown) [Osladin], for which, in data set [2], the Sweetness/potency is on record as 500.
